Assay results taken from paper PMC9358681 (Biochemical pharmacology, 2022).
“And” between values parts separate entries of the source, which are not always exact repeats. Equal entries are not always repeated. Where two headings read alike, the source gives them in different places.

Legend:
human A2BAR [1] = target: T1, human A2BAR (Homo sapiens, UniProt P29275); test: [3H]PSB-603 displacement on CHO-spap-hA2BAR membranes; assay type: binding
T1 construct: host or cells: CHO-spap
T1 sequence (P29275 1-332): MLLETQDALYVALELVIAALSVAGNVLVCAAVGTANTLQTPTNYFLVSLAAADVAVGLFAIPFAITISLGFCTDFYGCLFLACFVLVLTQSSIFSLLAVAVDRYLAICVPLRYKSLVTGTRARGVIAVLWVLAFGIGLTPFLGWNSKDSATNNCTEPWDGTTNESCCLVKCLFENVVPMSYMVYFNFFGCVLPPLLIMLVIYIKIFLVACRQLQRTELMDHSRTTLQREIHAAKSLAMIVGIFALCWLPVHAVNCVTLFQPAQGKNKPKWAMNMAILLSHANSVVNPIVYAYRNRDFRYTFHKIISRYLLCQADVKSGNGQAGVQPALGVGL

A1 adenosine receptor [2] = target: T2, A1 adenosine receptor (Rattus norvegicus, UniProt P25099); test: Radioligand binding, rat A1 ([3H]R-PIA, HEK-293); conditions: HEK-293, [3H]R-PIA
T2 sequence (P25099 1-326): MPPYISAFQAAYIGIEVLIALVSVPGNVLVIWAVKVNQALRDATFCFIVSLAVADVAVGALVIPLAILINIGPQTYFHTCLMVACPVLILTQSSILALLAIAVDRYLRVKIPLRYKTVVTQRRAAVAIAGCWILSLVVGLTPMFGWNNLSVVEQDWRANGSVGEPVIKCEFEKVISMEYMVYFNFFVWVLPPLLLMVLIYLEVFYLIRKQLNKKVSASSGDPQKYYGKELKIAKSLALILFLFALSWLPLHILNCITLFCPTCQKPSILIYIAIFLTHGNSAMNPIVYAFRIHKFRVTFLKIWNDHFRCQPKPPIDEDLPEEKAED
Description: (§1) The A2B receptor selectivity was generally low, especially at the rat A2B receptor.

human A2BAR [3] = target: T1, human A2BAR; test: [3H]PSB-603 competition association assay; assay type: binding; conditions: for RT: RT = 1/koff, competing ligand at 1.0-fold IC50, up to 3 hr; for Kd: read-out: Kinetic KD (koff/kon)
Method: In all radioligand binding experiments, CHO-spap-hA2BAR membranes were thawed and homogenized using an Ultra Turrax homogenizer at 24,000 rpm (IKA-Werke GmbH & Co.KG, Staufen, Germany), diluted in assay buffer to the desired concentration (10–30 μg per well or Eppendorf tube). All materials were brought to 25 °C, 30 min prior to the experiment. ZM241385 (10 μM) was used to determine nonspecific binding (NSB).
Addition of CHO-spap-hA2BAR membrane aliquots initiated the association. The amount of receptor-bound radioligand was determined at different time points up to 3 hr. After 3 hr the incubation was terminated and samples were obtained as described under “Displacement experiments”.
All competition association data were globally fitted.

A2B adenosine receptor [4] = target: T3, A2B adenosine receptor (Rattus norvegicus, UniProt P29276); test: Radioligand binding, rat A2B ([125I]I-ABOPX, HEK-293); conditions: rat (r), HEK-293, [125I]I-ABOPX
T3 sequence (P29276 1-332): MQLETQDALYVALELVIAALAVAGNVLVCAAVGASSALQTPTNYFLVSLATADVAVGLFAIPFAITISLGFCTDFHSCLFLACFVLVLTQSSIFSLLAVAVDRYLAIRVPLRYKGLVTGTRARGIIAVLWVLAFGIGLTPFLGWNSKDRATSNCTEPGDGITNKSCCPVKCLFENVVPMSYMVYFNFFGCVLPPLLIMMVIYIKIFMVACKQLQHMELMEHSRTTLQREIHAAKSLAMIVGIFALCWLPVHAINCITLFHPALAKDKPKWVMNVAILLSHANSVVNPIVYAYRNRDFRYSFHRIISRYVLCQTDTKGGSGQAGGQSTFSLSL

A2A adenosine receptor [5] = target: A2A adenosine receptor (Rattus norvegicus, UniProt P30543); test: Radioligand binding, rat A2A ([3H]CGS21680, HEK-293); conditions: rat (r), HEK-293, [3H]CGS21680
A2A adenosine receptor [6] = target: A2A adenosine receptor (Homo sapiens, UniProt P29274); test: Radioligand binding, human A2A ([3H]CGS21680, HEK-293); conditions: HEK-293, [3H]CGS21680
A1 adenosine receptor [7] = target: T4, A1 adenosine receptor (Homo sapiens, UniProt P30542); test: Radioligand binding, human A1 ([3H]R-PIA, HEK-293); conditions: HEK-293, [3H]R-PIA
T4 sequence (P30542 1-326): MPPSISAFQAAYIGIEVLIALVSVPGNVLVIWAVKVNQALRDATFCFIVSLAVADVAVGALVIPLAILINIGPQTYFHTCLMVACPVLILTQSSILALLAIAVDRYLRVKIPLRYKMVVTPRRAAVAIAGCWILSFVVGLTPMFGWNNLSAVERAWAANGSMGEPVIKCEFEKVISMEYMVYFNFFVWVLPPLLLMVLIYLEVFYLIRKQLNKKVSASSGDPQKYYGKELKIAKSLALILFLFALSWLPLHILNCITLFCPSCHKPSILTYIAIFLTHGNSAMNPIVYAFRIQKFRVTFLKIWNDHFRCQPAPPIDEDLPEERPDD
Description: as §1

A2B adenosine receptor [8] = target: T5, A2B adenosine receptor (Homo sapiens, UniProt P29275); test: Radioligand binding, human A2B ([125I]I-ABOPX, HEK-293); conditions: HEK-293, [125I]I-ABOPX
T5 sequence (P29275 1-332): T1 sequence (P29275 1-332)

A3 adenosine receptor = target: T6, A3 adenosine receptor (Homo sapiens, UniProt P0DMS8); test: Radioligand binding, human A3 ([125I]I-AB-MECA, HEK-293); conditions: HEK-293, [125I]I-AB-MECA
T6 sequence (P0DMS8 1-318): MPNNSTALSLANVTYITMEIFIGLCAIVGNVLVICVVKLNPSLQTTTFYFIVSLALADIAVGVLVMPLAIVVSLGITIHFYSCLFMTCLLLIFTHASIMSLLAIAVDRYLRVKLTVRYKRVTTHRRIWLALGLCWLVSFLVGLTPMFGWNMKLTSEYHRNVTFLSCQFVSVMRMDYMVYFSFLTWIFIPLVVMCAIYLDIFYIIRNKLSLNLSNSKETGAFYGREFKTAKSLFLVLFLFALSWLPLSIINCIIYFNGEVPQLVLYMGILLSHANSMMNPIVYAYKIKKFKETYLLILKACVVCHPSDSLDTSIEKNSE
Description: as §1

[9] = […] [3H]PSB-603, 2 h, 25 °C, read-out: Ki (converted)
[10] = […] [3H]PSB-603, 2 h, 25 °C, read-out: pKi (converted)

Sequence of A2A adenosine receptor (Rattus norvegicus, UniProt P30543) (P30543 whole entry): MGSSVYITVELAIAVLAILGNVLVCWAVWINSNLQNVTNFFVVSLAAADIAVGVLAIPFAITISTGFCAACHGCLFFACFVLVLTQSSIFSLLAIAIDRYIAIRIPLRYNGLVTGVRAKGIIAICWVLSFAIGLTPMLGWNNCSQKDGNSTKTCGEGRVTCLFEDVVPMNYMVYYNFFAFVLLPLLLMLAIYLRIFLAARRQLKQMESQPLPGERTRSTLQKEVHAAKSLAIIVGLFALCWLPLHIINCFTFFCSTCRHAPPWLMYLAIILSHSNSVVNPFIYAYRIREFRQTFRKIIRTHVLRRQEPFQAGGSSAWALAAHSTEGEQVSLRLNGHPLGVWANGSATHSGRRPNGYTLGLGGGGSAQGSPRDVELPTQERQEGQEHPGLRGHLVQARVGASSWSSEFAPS
Sequence of A2A adenosine receptor (Homo sapiens, UniProt P29274) (P29274 whole entry): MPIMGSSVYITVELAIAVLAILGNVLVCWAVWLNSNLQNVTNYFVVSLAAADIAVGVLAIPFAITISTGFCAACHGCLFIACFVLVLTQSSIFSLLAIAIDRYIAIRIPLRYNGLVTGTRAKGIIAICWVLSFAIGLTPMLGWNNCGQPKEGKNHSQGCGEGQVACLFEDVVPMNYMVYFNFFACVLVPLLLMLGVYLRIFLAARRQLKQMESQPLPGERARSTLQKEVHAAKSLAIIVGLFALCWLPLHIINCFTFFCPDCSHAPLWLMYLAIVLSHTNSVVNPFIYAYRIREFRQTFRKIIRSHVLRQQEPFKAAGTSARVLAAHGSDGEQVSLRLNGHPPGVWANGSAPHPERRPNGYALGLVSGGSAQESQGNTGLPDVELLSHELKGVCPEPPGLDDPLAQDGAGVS

Ki (human A2BAR [1]; [9])	Ki (A1 adenosine receptor [2])	RT (human A2BAR [3]; 25 °C)	koff (human A2BAR [3]; read-out: koff (converted))	kon (human A2BAR [3]; read-out: kon (converted))	Ki (A2A adenosine receptor [5])	Kd (human A2BAR [3])	Compound	further results
1350 nM	–	–	–	–	–	–	2-(4-(2,6-dioxo-1,3-dipropyl-2,3,6,7-tetrahydro-1H-purin-8-yl) phenoxy)-N-(pyridin-4-ylmethyl)acetamide [Compound 9]	pKi (human A2BAR [1]; […] [3H]PSB-603, 2 h, 25 °C): 5.87 ± 0.16
61400 nM	–	–	–	–	–	–	CCCn1c(=O)c2[nH]c(-c3ccc(OCC(=O)NC4CCC4)cc3)nc2n(CCC)c1=O [Compound 4, N-cyclobutyl-2-(4-(2,6-dioxo-1,3-dipropyl-2,3,6,7-tetrahydro-1H-purin-8-yl)phenoxy)acetamide]	Ki (human A2BAR [1]; […] [3H]PSB-603, 2 h, 25 °C, read-out: affinity (Ki)): 61400 nM
16700 nM	13.9 ± 1.8 nM	–	–	–	19.1 ± 5.1 nM	–	CCCn1c(=O)c2[nH]c(-c3ccc(OCC(=O)NC4CCCC4)cc3)nc2n(CCC)c1=O [Compound 5, N-cyclopentyl-2-(4-(2,6-dioxo-1,3-dipropyl-2,3,6,7-tetrahydro-1H-purin-8-yl)phenoxy)acetamide]	Ki (A2B adenosine receptor [4]): 26.3 nM
951 nM	23 ± 4.1 nM	–	–	–	19.3 ± 6.7 nM	–	CCCn1c(=O)c2[nH]c(-c3ccc(OCC(=O)NC4CCCCC4)cc3)nc2n(CCC)c1=O [Compound 7, N-cyclohexyl-2-(4-(2,6-dioxo-1,3-dipropyl-2,3,6,7-tetrahydro-1H-purin-8-yl)phenoxy)acetamide]	Ki (A2B adenosine receptor [4]): 73.5 ± 25.8 nM
1.93 nM	–	46 min and 46 ± 13 min	0.000367 s⁻¹	250000 M⁻¹ s⁻¹	–	–	CCCn1c(=O)c2[nH]c(-c3ccc(OCC(=O)Nc4ccccc4)cc3)nc2n(CCC)c1=O [Compound 8]	–
2.86 nM	–	–	–	–	–	–	CCCn1c(=O)c2[nH]c(-c3ccc(OCC(=O)Nc4ccc(C(F)(F)F)cc4)cc3)nc2n(CCC)c1=O [Compound 15]	kon (human A2BAR [3]; competing ligand at 1.0-fold IC50, […] [3H]PSB-603, up to 3 hr, 25 °C): Kinetics outside the range of the assay (see text)
24.4 nM	–	–	0.00165 s⁻¹	66700 M⁻¹ s⁻¹	–	27 ± 7.9 nM	CCCn1c(=O)c2[nH]c(-c3ccc(OCC(=O)NCc4ccc(O)c(O)c4)cc3)nc2n(CCC)c1=O [Compound 23, N-(3,4-dihydroxybenzyl)-2-(4-(2,6-dioxo-1,3-dipropyl-2,3,6,7-tetrahydro-1H-purin-8-yl)phenoxy)acetamide]	–

Continued, compound first:

Compound	Ki (human A2BAR [1]; [9])	Ki (A1 adenosine receptor [2])	RT (human A2BAR [3]; 25 °C)	koff (human A2BAR [3]; read-out: koff (converted))	kon (human A2BAR [3]; read-out: kon (converted))	Ki (A2A adenosine receptor [5])	Kd (human A2BAR [3])	further results
CCCn1c(=O)c2[nH]c(-c3ccc(OCC(=O)NC4CC4)cc3)nc2n(CCC)c1=O [Compound 3, N-cyclopropyl-2-(4-(2,6-dioxo-1,3-dipropyl-2,3,6,7-tetrahydro-1H-purin-8-yl)phenoxy)acetamide]	36.3 nM	10.7 ± 1.75 nM	0.9 min and 0.9 ± 0.0 min	0.0178 s⁻¹	600000 M⁻¹ s⁻¹	51.7 ± 19.6 nM	–	Ki (A2B adenosine receptor [4]): 36.6 ± 5.1 nM
CCCn1c(=O)c2[nH]c(-c3ccc(OCC(=O)Nc4cc[nH]n4)cc3)nc2n(CCC)c1=O [Compound 6, 2-(4-(2,6-dioxo-1,3-dipropyl-2,3,6,7-tetrahydro-1H-purin-8-yl)phenoxy)-N-(1H-pyrazol-3-yl)acetamide]	5480 nM	–	–	–	–	–	–	–
CCCn1c(=O)c2[nH]c(-c3ccc(OCC(=O)Nc4cnccn4)cc3)nc2n(CCC)c1=O [Compound 10, 2-(4-(2,6-dioxo-1,3-dipropyl-2,3,6,7-tetrahydro-1H-purin-8-yl)phenoxy)-N-(pyrazin-2-yl)acetamide]	6950 nM	–	–	–	–	–	–	–
CCCn1c(=O)c2[nH]c(-c3ccc(OCC(=O)N(CC(=O)OCC)CC(=O)OCC)cc3)nc2n(CCC)c1=O [Compound 11]	–	–	–	–	–	–	–	Ki (human A2BAR [1]; [10]): 112 nM
CCCn1c(=O)c2[nH]c(-c3ccc(OCC(=O)Nc4ccc(C)cc4)cc3)nc2n(CCC)c1=O [Compound 12]	3.42 nM	–	55 ± 25 min	0.0003 s⁻¹	117000 M⁻¹ s⁻¹	–	2.7 ± 1.5 nM	–
CCCn1c(=O)c2[nH]c(-c3ccc(OCC(=O)Nc4ccc(C#N)cc4)cc3)nc2n(CCC)c1=O [Compound 13]	–	–	69 min and 69 ± 2.4 min	–	–	–	–	–
CCCn1c(=O)c2[nH]c(-c3ccc(OCC(=O)Nc4ccc([N+](=O)[O-])cc4)cc3)nc2n(CCC)c1=O [Compound 14]	13.5 nM	–	58 min and 58 ± 19 min	0.000283 s⁻¹	23300 M⁻¹ s⁻¹	–	12 ± 4.9 nM	–
CCCn1c(=O)c2[nH]c(-c3ccc(OCC(=O)Nc4ccc(C(C)=O)cc4)cc3)nc2n(CCC)c1=O [Compound 16]	–	–	54 min and 54 ± 18 min	–	–	–	1.7 ± 0.58 nM	koff (human A2BAR [3]): 0.000317 s⁻¹; kon (human A2BAR [3]): 183000 M⁻¹ s⁻¹; Ki (human A2BAR [1]): 3.03 nM
CCCn1c(=O)c2[nH]c(-c3ccc(OCC(=O)NCc4ccccc4)cc3)nc2n(CCC)c1=O [Compound 19]	–	5.02 nM	–	–	–	25.9 nM	–	Ki (A2A adenosine receptor [6]): 23.8 ± 5.7 nM; Ki (A1 adenosine receptor [7]): 54.7 ± 21.2 nM
CCCn1c(=O)c2[nH]c(-c3ccc(OCC(=O)NCc4ccc(C)cc4)cc3)nc2n(CCC)c1=O [Compound 20, 2-(4-(2,6-dioxo-1,3-dipropyl-2,3,6,7-tetrahydro-1H-purin-8-yl)phenoxy)-N-(4-methylbenzyl)acetamide]	9.08 nM	8.85 nM	22 ± 3.5 min	0.000767 s⁻¹	66700 M⁻¹ s⁻¹	207 nM	12 ± 4.7 nM	Ki (A2B adenosine receptor [8]): 8 ± 2.2 nM; Ki (A2A adenosine receptor [6]): 20.8 ± 2.4 nM; Ki (A3 adenosine receptor): 140 ± 7 nM; Ki (A1 adenosine receptor [7]): 212 ± 68 nM; Ki (A2B adenosine receptor [4]): 486 nM
CCCn1c(=O)c2[nH]c(-c3ccc(OCC(=O)NCc4ccc(Br)cc4)cc3)nc2n(CCC)c1=O [Compound 22, N-(4-bromobenzyl)-2-(4-(2,6-dioxo-1,3-dipropyl-2,3,6,7-tetrahydro-1H-purin-8-yl)phenoxy)acetamide]	5.73 nM	32.7 nM	–	0.000717 s⁻¹	117000 M⁻¹ s⁻¹	112 nM	6.5 ± 3.6 nM	Ki (A2B adenosine receptor [8]): 6.8 ± 0.8 nM; Ki (A2A adenosine receptor [6]): 26.1 ± 0.4 nM; Ki (A3 adenosine receptor): 274 ± 56 nM; Ki (A1 adenosine receptor [7]): 586 ± 250 nM
CCCn1c(=O)c2[nH]c(-c3ccc(OCC(=O)NC(c4ccccc4)c4ccccc4)cc3)nc2n(CCC)c1=O [Compound 26]	37.9 nM	–	19 ± 6.2 min	0.000883 s⁻¹	28300 M⁻¹ s⁻¹	–	31 ± 16 nM	–
CCCn1c(=O)c2[nH]c(-c3ccc(OCC(=O)N(Cc4ccccc4)Cc4ccccc4)cc3)nc2n(CCC)c1=O [Compound 27]	–	–	–	–	–	–	–	Ki (human A2BAR [1]; [10]): 120 nM
